According to ChEMBL document CHEMBL1201862, “PubChem BioAssay data set” (2004):
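Five concentrations, 48 hours, 96-well plates. At the GI50, growth is halved.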 Calls of active or inactive are those of the source. No stated cut-off is given here; in the data, active = GI50 up to about 1.1 µM and inactive = higher.

How the values were obtained:
Experiment in all cases: NCI anticancer screen, dose series, 48 h
MOLT-4 = tested on: MOLT-4
SNB-75 = tested on: SNB-75
A549 = tested on: A549
SNB-19 = tested on: SNB-19
TK-10 = tested on: TK-10
PC-3 = tested on: PC-3
SF-295 = tested on: SF-295
COLO 205 = tested on: COLO 205
HCC 2998 = tested on: HCC 2998
SN12C = tested on: SN12C
EKVX = tested on: EKVX
HCT-116 = tested on: HCT-116
DU-145 = tested on: DU-145
SK-MEL-28 = tested on: SK-MEL-28
IGROV-1 = tested on: IGROV-1
SF-268 = tested on: SF-268
NCI-H226 = tested on: NCI-H226
M14 = tested on: M14

Measured: GI50

N#C[BH2-][n+]1cn(C2CC(OP(=O)(O)OCC3OC(n4ccc(N)nc4=O)CC3O)C(CO)O2)c2nc(N)[nH]c(=O)c21 (stereo unspecified)
inactive: MOLT-4 > 100 µM | SNB-75 > 100 µM | A549 > 100 µM | SNB-19 > 100 µM | TK-10 > 100 µM | PC-3 > 100 µM | SF-295 > 100 µM | COLO 205 > 100 µM | HCC 2998 > 100 µM | SN12C > 100 µM | EKVX > 100 µM | HCT-116 > 100 µM | DU-145 > 100 µM | SK-MEL-28 > 100 µM | IGROV-1 > 100 µM | SF-268 > 100 µM | NCI-H226 > 100 µM

O=C1CC(O)c2cscc21 (stereo unspecified)
inactive: MOLT-4 35.2 µM | SNB-75 > 100 µM | TK-10 > 100 µM | PC-3 > 100 µM | SF-295 > 100 µM | COLO 205 34 µM | HCC 2998 32.2 µM | SN12C > 100 µM | EKVX > 100 µM | HCT-116 > 100 µM | DU-145 > 100 µM | SK-MEL-28 > 100 µM | IGROV-1 > 100 µM | SF-268 > 100 µM | NCI-H226 > 100 µM

O=C1Nc2ccccc2/C1=N/Nc1nc(-c2ccccc2)cs1
inactive: MOLT-4 45.2 µM | SNB-75 8.63 µM | A549 75.3 µM | SNB-19 29.9 µM | TK-10 31.9 µM | PC-3 19.2 µM | SF-295 24.5 µM | COLO 205 42.4 µM | HCC 2998 52.5 µM | SN12C 27.1 µM | EKVX 21.4 µM | HCT-116 31.9 µM | DU-145 35.5 µM | SK-MEL-28 36.1 µM | M14 23.1 µM | IGROV-1 21.1 µM | NCI-H226 > 100 µM

Cn1c(=O)oc2cc(C(=S)N3CCCCC3)ccc21
inactive: MOLT-4 > 100 µM | SNB-75 > 100 µM | SNB-19 > 100 µM | TK-10 > 100 µM | PC-3 > 100 µM | SF-295 > 100 µM | COLO 205 > 100 µM | SN12C > 100 µM | EKVX > 100 µM | HCT-116 > 100 µM | DU-145 > 100 µM | SK-MEL-28 > 100 µM | M14 > 100 µM | IGROV-1 > 100 µM | SF-268 > 100 µM | NCI-H226 > 100 µM

O=C1/C(=C\c2cccc(Oc3ccccc3)c2)S(=O)(=O)C(c2ccccc2)N1c1cc(Cl)ccc1Cl (stereo unspecified)
inactive: MOLT-4 3.84 µM | SNB-75 23.9 µM | A549 22.2 µM | SNB-19 16 µM | TK-10 22.3 µM | PC-3 32.4 µM | SF-295 14.2 µM | COLO 205 22.2 µM | HCC 2998 21.7 µM | SN12C 16.9 µM | EKVX 27.8 µM | HCT-116 4.6 µM | DU-145 20.9 µM | SK-MEL-28 17.3 µM | M14 16.5 µM | IGROV-1 15.6 µM | SF-268 18.5 µM

Cc1cn(C2CC(n3cc(Cn4cc(I)c(=O)[nH]c4=O)nn3)C(CO)O2)c(=O)[nH]c1=O (stereo unspecified)
inactive: MOLT-4 > 100 µM | SNB-75 > 100 µM | A549 > 100 µM | SNB-19 > 100 µM | TK-10 > 100 µM | PC-3 > 100 µM | SF-295 > 100 µM | COLO 205 > 100 µM | HCC 2998 > 100 µM | SN12C > 100 µM | HCT-116 > 100 µM | DU-145 > 100 µM | SK-MEL-28 > 100 µM | M14 > 100 µM | SF-268 > 100 µM | NCI-H226 > 100 µM

COC1OC(CO)C(O)C(OC(=O)c2cc(O)c(O)c(O)c2)C1OC(=O)c1cc(O)c(O)c(O)c1 (stereo unspecified)
inactive: MOLT-4 79.4 µM | SNB-75 > 100 µM | A549 > 100 µM | SNB-19 > 100 µM | TK-10 > 100 µM | PC-3 95.5 µM | SF-295 20.2 µM | COLO 205 59.8 µM | SN12C 61.9 µM | EKVX > 100 µM | HCT-116 37.7 µM | DU-145 > 100 µM | SK-MEL-28 > 100 µM | M14 45.4 µM | IGROV-1 > 100 µM | SF-268 59.4 µM | NCI-H226 > 100 µM

c1ccc(COC2C3COC(O3)C(OCc3ccccc3)C2OCc2ccccc2)cc1 (stereo unspecified)
inactive: MOLT-4 6.75 µM | SNB-75 22.8 µM | SNB-19 27.3 µM | TK-10 70.5 µM | PC-3 35.2 µM | SF-295 94.4 µM | COLO 205 41 µM | HCC 2998 14.6 µM | SN12C 13.6 µM | EKVX 38.7 µM | HCT-116 33.9 µM | DU-145 78.5 µM | M14 32.2 µM | IGROV-1 79.1 µM | SF-268 > 100 µM | NCI-H226 60.7 µM
